We go through one compound from BindingDB's records for patent US11970463 (Astrazeneca, 2024).

For this data set, the target named is Potassium voltage-gated channel subfamily H member 2 (Homo sapiens, UniProt Q12809). The data set can be described thus: hERG Assay. As to the method:
Experiments were performed on the SyncroPatch 384PE (Nanion Technologies) high throughput patch clamp platform at rt and used medium resistance chips with 4 patch holes per site. hERG-expressing Chinese hamster ovary K1 (CHO) cell line were used in assay-ready format and kept in liquid nitrogen until use. 2 vials of cells (10×10^6 cells per vial) were thawed and added to 20 mL Hepes-buffered saline solution (HBSS). HBSS comprised 140 mM NaCl, 4 mM KCl, 10 mM HEPES and 5 mM Glucose (pH 7.4). The internal patch clamp solution was KF 120 mM, KCl 20 mM, HEPES 10 mM, EGTA 10 mM, and 25 μM Escin (pH7.2). After the initial sealing process was complete, a seal enhancer solution comprising HBSS supplemented with 10 mM CaCl2 and 1 mM MgCl2 was applied to cells. The external solution was then exchanged (4 times) for external patch clamp solution comprising NaCl 80 mM, KCl 4 mM, HEPES 10 mM, CaCl2 2 mM, MgCl2 1 mM, glucose 5 mM, and NMDG 60 mM (pH 7.4). All solutions were stored at rt, except Escin, which was stored at 4° C. All compounds were dispensed in greiner-bio 384 well plates and tested in a 6 point cumulative assay (final DMSO concentration 0.33%). Only wells that passed acceptance criteria (30 MegaOhm seal resistance, Z prime >0.4 and current size >0.2 nA) were used in this analysis.
In general terms: The hERG channel carries a current that helps repolarise heart muscle cells.

Chain of Potassium voltage-gated channel subfamily H member 2 (Q12809 whole entry): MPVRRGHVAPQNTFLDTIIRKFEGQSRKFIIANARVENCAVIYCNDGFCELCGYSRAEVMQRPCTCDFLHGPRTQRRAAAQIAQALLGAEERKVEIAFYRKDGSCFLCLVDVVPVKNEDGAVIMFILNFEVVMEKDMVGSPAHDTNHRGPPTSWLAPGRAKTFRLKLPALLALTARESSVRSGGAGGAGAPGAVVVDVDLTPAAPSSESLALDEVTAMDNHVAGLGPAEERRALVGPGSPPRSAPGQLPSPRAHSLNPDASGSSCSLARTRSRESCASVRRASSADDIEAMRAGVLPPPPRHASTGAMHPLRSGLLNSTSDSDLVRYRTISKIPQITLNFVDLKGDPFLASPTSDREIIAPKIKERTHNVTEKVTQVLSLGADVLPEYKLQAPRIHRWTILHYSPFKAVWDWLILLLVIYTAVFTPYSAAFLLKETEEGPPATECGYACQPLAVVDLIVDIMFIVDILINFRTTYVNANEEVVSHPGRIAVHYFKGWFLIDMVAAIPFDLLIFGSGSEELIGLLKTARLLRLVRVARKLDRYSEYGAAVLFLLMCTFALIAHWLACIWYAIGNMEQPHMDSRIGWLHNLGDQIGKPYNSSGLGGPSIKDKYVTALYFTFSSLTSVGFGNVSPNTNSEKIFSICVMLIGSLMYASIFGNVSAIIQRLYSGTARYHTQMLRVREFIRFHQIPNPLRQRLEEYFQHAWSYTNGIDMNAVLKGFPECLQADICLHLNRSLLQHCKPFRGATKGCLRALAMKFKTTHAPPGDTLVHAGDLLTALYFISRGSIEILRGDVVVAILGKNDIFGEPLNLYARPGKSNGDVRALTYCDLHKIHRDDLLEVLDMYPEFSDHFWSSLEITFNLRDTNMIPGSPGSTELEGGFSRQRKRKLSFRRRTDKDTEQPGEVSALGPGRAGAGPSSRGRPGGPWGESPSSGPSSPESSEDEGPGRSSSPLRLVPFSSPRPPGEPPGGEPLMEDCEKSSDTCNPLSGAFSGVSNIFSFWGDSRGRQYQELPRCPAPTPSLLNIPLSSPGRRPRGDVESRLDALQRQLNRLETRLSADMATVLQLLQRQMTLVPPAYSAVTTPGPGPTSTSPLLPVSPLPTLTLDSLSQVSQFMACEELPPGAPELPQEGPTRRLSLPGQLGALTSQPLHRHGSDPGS

Broadly, the IC50 is the midpoint of a concentration-inhibition curve. In turn, `C[C@@]1(O)CC[C@@H](Nc2nnc(-c3ccc(C(F)(F)F)cc3O)c3ccncc23)C1` [US11970463, Example 38] registered an IC50 of 34 µM.
